From patent US9221784B2, “Benzo[1,3]dioxine derivatives and their use as LPAR5 antagonists” (SANOFI, priority 2012, dated 2015)
pIC50: −log10 of the molar value.

Legend:
Format in all cases: cell-based
[1] = target: T1, LPA receptor LPAR5 (Homo sapiens, UniProt Q9H1C0); assay: FLIPR assay, intracellular Ca2+ release in human mast cell line HMC-1; set-up: two cell lines were used with high LPAR5 expression; endogenous in cells; host or cells: HMC-1 human mast cell line; details: human mast cell line HMC-1, LPA-stimulated Ca2+ release, test compounds added 10 minutes prior LPA
From the text: (§1) B) Use of the Fluorometric Imaging Plate Reader (FLIPR) Assay for the Determination of Intracellular Ca^2+ Release in Human Mast Cell Line HMC-1 and the Murine Microglia Cell Line BV-2
(§2) The ability of the compounds of the formula I to inhibit or bind the LPA receptor LPAR5 can be assessed by determining the intracellular Ca^2+ release in human or animal cells. For the analysis of activating potential of LPA and the inhibitory effects of compounds of the formula I two cell lines were used with high LPAR5 expression, the human mast cell line HMC-1 and the murine microglia cell line BV-2 (Figures 1 and 2). For the FLIPR assay using human mast cells in a 96-well-format, HMC-1 suspension cells from flask culture were harvested, resuspended and counted. 14×10^6 HMC-1 cells were transferred into a new 50 ml tube, centrifuged for 3 minutes at 540×g. The resulting cell pellet at the bottom of the tube was resuspended with 15 ml loading buffer (loading buffer contained HBSS buffer (pH 7.4), 0.1% BSA (bovine serum albumin), 2 μM FLUO-4 dye; HBSS buffer (pH 7.4) contained 1×HBSS, 20 mM HEPES, 0.01% Pluronic F-127, 2.5 mM Probenicid).
Cells in loading buffer were incubated for 45-60 minutes at 37° C. After incubation cells were centrifuged for 3 minutes at 540×g and resuspended with 21 ml of HBSS buffer (pH 7.4). Each well of a poly-D-lysine coated 96-well-plate was filled with 150 μl cell solution, an equivalent of 100 000 cells/well. The 96-well-plate was centrifuged for 2 minutes at 100×g (without brake) prior a recovery time of 30 minutes at 37° C. After this procedure cells were stimulated with LPA (in HBSS pH 7.4 and 0.1% BSA) to determine the EC50 of LPA in HMC-1 cells. For the determination of the inhibitory effect of compounds of the formula I, test compounds were added to the cells in the 96-well-plate 10 minutes prior the addition of LPA. Results of the assay are expressed as % activation, and are calculated using maximum peak of activation (Amax). The IC50 data of the above described FLIPR assay using human mast cell line HMC-1 for exemplary compounds of the present invention are shown in Table 2. Adherent BV-2 cells were seeded onto poly-D-lysine coated 96-well-plates (100000 cells/well) the day before performing the FLIPR assay. The density of the cells in the 96-well-plate at the day of the FLIPR assay should be 90%. After aspiration of the culture media, BV-2 cells were incubated for 30 minutes at 37° C. with loading buffer and recovered in 150 μl HBSS buffer for 30 minutes at 37° C. After this procedure cells were stimulated with LPA (in HBSS pH 7.4 and 0.1% BSA) to determine the EC50 of LPA in BV-2 cells. For the determination of the inhibitory effect of compounds of the formula I, test compounds were added to the cells in the 96-well-plate 10 minutes prior the addition of LPA. The IC50 data of the above described FLIPR assay using the murine microglia cell line BV-2 for exemplary compounds of the present invention are shown in Table 3.

[2] = target: T1, LPA receptor LPAR5; assay: Aggregation assay for washed human blood platelets (LPA-induced); details: reduction of the maximal aggregation, 5 minutes incubation at 37° C.
Experimental: A) Aggregation Assay for Washed Human Blood Platelets (Thrombocytes)
Whole blood was collected from healthy volunteers using 3×20 ml syringes containing each 1/10 volume of buffered citrate. The anticoagulated whole blood was transferred into 50 ml polypropylene conical tubes (30 ml per tube). The tubes were centrifuged for 10 minutes at 150×g at room temperature without using the centrifuge brake. This procedure results in a lower phase of cellular components and a supernatant (upper phase) of platelet rich plasma (PRP). The PRP phase was collected from each tube and pooled for each donor. To avoid carry over of cellular components following first centrifugation, approximately 5 ml of PRP was left in the tube. The platelet concentration was determined using a ABX Micros 60 counter. The PRP phase was transferred to a new 50 ml tube. After 10 minutes standing at room temperature, 1 μl PGI2 (1 mM in Tris-HCl/pH 8.8) and 180 μl ACD/A were added per ml PRP. The PRP was then transferred to new 10 ml tube and centrifuged for 10 minutes at 500×g. After centrifugation a cellular pellet is visible at the bottom of the tube. The supernatant was carefully discarded and the cellular pellet, consisting of human blood platelets was then dissolved in 10 ml buffer T (buffer T composition: 145 mM NaCl, 5 mM KCl, 0.1 mM MgCl2×6 H2O, 15 mM HEPES, 5.5 mM glucose, pH 7.4). Platelet concentration in this solution was determined and buffer T was added to obtain a final concentration of 3.5×10^5 platelets per ml.
After 10 minutes at room temperature, 1 μl PGI2 per ml platelet solution was added and distributed into new 10 ml tubes. After a centrifugation step, 10 minutes at 500×g, supernatant was discarded and the platelets were resuspended in buffer T to a final concentration of 3.5×10^5 platelets per ml buffer T. Before use, platelet-containing buffer equilibrated for 30 minutes at room temperature. The human platelet aggregation assay was performed in single use cuvettes using the Platelet Aggregation Profiler® (PAP-4 or -8E, BIO/DATA Corporation). For a single experiment, 320 μl of platelet solution were transferred into an assay cuvette, 20 μl of calcium citrate solution (10 mM in H2O) and 20 μl of fibrinogen solution (20 mg/ml H2O) were added. The aggregation assay was performed in the assay cuvette at 37° C. and with 1.200 rpm stirring. To determine the EC50, eight assay cuvettes were loaded as described above with different concentrations of LPA. Aggregation was measured over 6 minutes at 37° C. with 1200 rpm (revolutions per minute) stirring. Results of the assay are expressed as % activation, and are calculated using maximum aggregation (Tmax) or area under curve (AUC) of the absorbance over 6 minutes. The inhibitory effect (IC50) of the test compounds was determined as the reduction of the maximal aggregation. Test compound was added prior starting the experiment with an incubation time of the test compound of 5 minutes at 37° C. with 1200 rpm stirring. The IC50 data of the above described platelet aggregation assay using human washed platelets for exemplary compounds of the present invention are shown in Table 1.

[3] = target: T2, LPA receptor LPAR5 (Mus musculus, UniProt Q149R9); assay: FLIPR assay, intracellular Ca2+ release in murine microglia cell line BV-2; details: murine microglia cell line BV-2, LPA-stimulated Ca2+ release, test compounds added 10 minutes prior LPA
T2 construct: two cell lines were used with high LPAR5 expression; endogenous in cells; host or cells: BV-2 murine microglia cell line
From the text: as §1, §2
Cells in loading buffer were incubated for 45-60 minutes at 37° C. After incubation cells were centrifuged for 3 minutes at 540×g and resuspended with 21 ml of HBSS buffer (pH 7.4). Each well of a poly-D-lysine coated 96-well-plate was filled with 150 μl cell solution, an equivalent of 100 000 cells/well. The 96-well-plate was centrifuged for 2 minutes at 100×g (without brake) prior a recovery time of 30 minutes at 37° C. After this procedure cells were stimulated with LPA (in HBSS pH 7.4 and 0.1% BSA) to determine the EC50 of LPA in HMC-1 cells. For the determination of the inhibitory effect of compounds of the formula I, test compounds were added to the cells in the 96-well-plate 10 minutes prior the addition of LPA. Results of the assay are expressed as % activation, and are calculated using maximum peak of activation (Amax). […]

T1 sequence (Q9H1C0 whole entry): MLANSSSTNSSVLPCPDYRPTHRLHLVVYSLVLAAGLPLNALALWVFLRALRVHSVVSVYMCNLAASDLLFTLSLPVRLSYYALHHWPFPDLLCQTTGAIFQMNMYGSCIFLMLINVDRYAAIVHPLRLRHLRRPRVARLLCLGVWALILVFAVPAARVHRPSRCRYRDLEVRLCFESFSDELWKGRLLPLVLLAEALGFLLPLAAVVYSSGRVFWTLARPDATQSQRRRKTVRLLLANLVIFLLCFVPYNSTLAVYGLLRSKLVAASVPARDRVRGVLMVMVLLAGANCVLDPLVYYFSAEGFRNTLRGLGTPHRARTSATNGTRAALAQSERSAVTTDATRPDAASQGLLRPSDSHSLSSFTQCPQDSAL
T2 sequence (Q149R9 whole entry): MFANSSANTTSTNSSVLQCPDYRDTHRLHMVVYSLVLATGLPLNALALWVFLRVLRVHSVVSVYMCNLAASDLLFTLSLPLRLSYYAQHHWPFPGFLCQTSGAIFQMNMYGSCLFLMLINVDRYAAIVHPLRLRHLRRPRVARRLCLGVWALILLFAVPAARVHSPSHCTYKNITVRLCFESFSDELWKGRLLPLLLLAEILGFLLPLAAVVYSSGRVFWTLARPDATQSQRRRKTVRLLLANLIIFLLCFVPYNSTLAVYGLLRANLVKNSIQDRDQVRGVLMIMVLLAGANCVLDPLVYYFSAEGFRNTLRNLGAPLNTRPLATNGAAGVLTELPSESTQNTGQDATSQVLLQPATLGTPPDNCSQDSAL

| SMILES | pIC50 [1] | pIC50 [2] | pIC50 [3] |
| --- | --- | --- | --- |
| O=C(O)C1Oc2cc(-n3cccc3)ccc2C(C2CCCCC2)(C2CCCCC2)O1 (centres unmarked) [Example 2, 4,4-Dicyclohexyl-7-pyrrol-1-yl-4H-benzo[1,3]dioxine-2-carboxylic acid] | 5.47 |  |  |
| O=c1[nH]c(C2Oc3ccc(Cl)cc3C(C3CCCCC3)(C3CCCCC3)O2)no1 (centres unmarked) [Example 61, 3-(6-Chloro-4,4-dicyclohexyl-4H-benzo[1,3]dioxin-2-yl)-4H-[1,2,4]oxadiazol-5-one] | 5.49 |  |  |
| O=C(O)C1Oc2ccc3ccccc3c2C(C2CCCCC2)(C2CCCCC2)O1 (centres unmarked) [Example 33, 1,1-Dicyclohexyl-1H-naphtho[2,1-d][1,3]dioxine-3-carboxylic acid] | 5.48 |  |  |
| O=C(O)C1Oc2ccc(Oc3ccc(Cl)cc3)cc2C(C2CCCCC2)(C2CCCCC2)O1 (centres unmarked) [Example 22, 6-(4-Chloro-phenoxy)-4,4-dicyclohexyl-4H-benzo[1,3]dioxine-2-carboxylic acid] | 5.59 |  |  |
| O=C(O)C1Oc2c(OC(F)(F)F)cccc2C(C2CCCCC2)(C2CCCCC2)O1 (centres unmarked) [Example 46, 4,4-Dicyclohexyl-8-trifluoromethoxy-4H-benzo[1,3]dioxine-2-carboxylic acid] | 5.49 | 5.27 |  |
| O=C(O)C1Oc2cc(OCc3ccccc3)ccc2C(C2CCCCC2)(C2CCCCC2)O1 (centres unmarked) [Example 37, 7-Benzyloxy-4,4-dicyclohexyl-4H-benzo[1,3]dioxine-2-carboxylic acid] | 5.44 | 4.95 |  |
| O=c1[nH]nc(C2Oc3ccc(Cl)cc3C(C3CCCCC3)(C3CCCCC3)O2)o1 (centres unmarked) [Example 63, 5-(6-Chloro-4,4-dicyclohexyl-4H-benzo[1,3]dioxin-2-yl)-3H-[1,3,4]oxadiazol-2-one] | 5.11 |  |  |
| CCOc1cccc2c1C(C1CCCCC1)(C1CCCCC1)OC(C(=O)O)O2 (centres unmarked) [Example 30, 4,4-Dicyclohexyl-5-ethoxy-4H-benzo[1,3]dioxine-2-carboxylic acid] |  | 5.23 |  |
| CCN(CC)c1ccc2c(c1)OC(C(=O)O)OC2(C1CCCCC1)C1CCCCC1 (centres unmarked) [Example 49, 4,4-Dicyclohexyl-7-diethylamino-4H-benzo[1,3]dioxine-2-carboxylic acid] | 5.44 | 5.57 |  |
| O=C(c1ccc(Cl)cc1)c1ccc2c(c1)C(C1CCCCC1)(C1CCCCC1)OC(C(=O)O)O2 (centres unmarked) [Example 26, 6-(4-Chloro-benzoyl)-4,4-dicyclohexyl-4H-benzo[1,3]dioxine-2-carboxylic acid] | 5.47 |  |  |
| O=C(O)C1Oc2ccc3c(c2C(C2CCCCC2)(C2CCCCC2)O1)CCCC3 (centres unmarked) [Example 45, 1,1-Dicyclohexyl-7,8,9,10-tetrahydro-1H-naphtho[2,1-d][1,3]dioxine-3-carboxylic acid] | 5.51 |  |  |
| O=C(O)C1Oc2ccc(OC(F)(F)F)cc2C(C2CCCCC2)(C2CCCCC2)O1 (centres unmarked) [Example 18, 4,4-Dicyclohexyl-6-trifluoromethoxy-4H-benzo[1,3]dioxine-2-carboxylic acid] | 5.82 |  | 5.82 |
| CCCCOc1ccc2c(c1)OC(C(=O)O)OC2(C1CCCCC1)C1CCCCC1 (centres unmarked) [Example 31, 7-Butoxy-4,4-dicyclohexyl-4H-benzo[1,3]dioxine-2-carboxylic acid] | 5.28 |  |  |
| O=C(O)C1Oc2ccc(-c3ccccc3)cc2C(C2CCCCC2)(C2CCCCC2)O1 (centres unmarked) [Example 35, 4,4-Dicyclohexyl-6-phenyl-4H-benzo[1,3]dioxine-2-carboxylic acid] | 5.42 |  |  |
| Clc1ccc2c(c1)C(C1CCCCC1)(C1CCCCC1)OC(c1nnn[nH]1)O2 (centres unmarked) [Example 60, 5-(6-Chloro-4,4-dicyclohexyl-4H-benzo[1,3]dioxin-2-yl)-1H-tetrazole] | 5.44 |  |  |

Other lines, results leading:

| pIC50 [1] | pIC50 [2] | pIC50 [3] | SMILES |
| --- | --- | --- | --- |
| 5.62 |  |  | O=C(O)C1Oc2ccc(Cl)cc2C(C2CCCCCC2)(C2CCCCCC2)O1 (centres unmarked) [Example 55, 6-Chloro-4,4-dicycloheptyl-4H-benzo[1,3]dioxine-2-carboxylic acid] |
| 5.60 |  |  | O=C(O)C1Oc2ccc(Br)cc2C(C2CCCCC2)(C2CCCCC2)O1 (centres unmarked) [Example 50, 6-Bromo-4,4-dicyclohexyl-4H-benzo[1,3]dioxine-2-carboxylic acid] |
| 5.48 |  |  | Cc1cc2c(cc1Cl)C(C1CCCCC1)(C1CCCCC1)OC(C(=O)O)O2 (centres unmarked) [Example 43, 6-Chloro-4,4-dicyclohexyl-7-methyl-4H-benzo[1,3]dioxine-2-carboxylic acid] |
| 5.36 |  |  | COc1cc(OC)c2c(c1)OC(C(=O)O)OC2(C1CCCCC1)C1CCCCC1 (centres unmarked) [Example 7, 4,4-Dicyclohexyl-5,7-dimethoxy-4H-benzo[1,3]dioxine-2-carboxylic acid] |
| 5.49 | 5.96 | 5.39 | O=C(O)C1Oc2ccc(Cl)cc2C(C2CCCCC2)(C2CCCCC2)O1 (centres unmarked) [Example 1, 6-Chloro-4,4-dicyclohexyl-4H-benzo[1,3]dioxine-2-carboxylic acid] |
| 5.46 |  |  | O=C(O)C1Oc2c(Cl)cc(Cl)cc2C(C2CCCCC2)(C2CCCCC2)O1 (centres unmarked) [Example 32, 6,8-Dichloro-4,4-dicyclohexyl-4H-benzo[1,3]dioxine-2-carboxylic acid] |
|  | 5.62 |  | COc1cc(C)c2c(c1)OC(C(=O)O)OC2(C1CCCCC1)C1CCCCC1 (centres unmarked) [Example 36, 4,4-Dicyclohexyl-7-methoxy-5-methyl-4H-benzo[1,3]dioxine-2-carboxylic acid] |
|  |  | 5.10 | Cc1cccc2c1OC(C(=O)O)OC2(C1CCCCC1)C1CCCCC1 (centres unmarked) [Example 12, 4,4-Dicyclohexyl-8-methyl-4H-benzo[1,3]dioxine-2-carboxylic acid] |
